Values quoted from earlier work, collected in US20050255155A1, “Modified release cilostazol compositions” (Glenmark Pharmaceuticals Limited, priority 2004, published 2005).

Conditions: BCS characterisation

O=C1CCc2cc(OCCCCc3nnnn3C3CCCCC3)ccc2N1 [cilostazol, 6-[4-(1-cyclohexyl-1H-tertazole-5-yl)butoxy]-3,4-dihydro-2 (1H)-quinolinone]
solubility: low solubility
